Structures are written as SMILES. Structures can show the parent of a compound that is named as a salt. Where two headings read alike, the source gives them in different places.

For orientation: LD50 means the dose expected to kill half of the subjects tested.

The test system of series [1] is neurogenic urethral hypertension (stimulation of the hypogastric nerve). Nature of the series: Urethral specificity in anesthetized dogs: neurogenic urethral hypertension. The class given is in vivo. As to conditions: Canis lupus familiaris, iv, 50% inhibition of effect of hypogastric nerve stimulation on urethral pressure, read-out: Neurogenic urethral hypertension ID50. The text has this:
(§1) The effect of products B 1007, B 1024, B 1125 and B 1134, injected intravenously, on the neurogenic urethral hypertension and the arterial pressure was investigated on anesthetized dogs.
Electrical stimulation of the hypogastric nerve causes an increase in the urethral pressure by releasing norepinephrine from the sympathetic fibers of the nerve.
(§2) α-Blocking substances antagonize these increases in urethral pressure as a function of dose and cause arterial hypotension through a blocking action on the vascular receptors.
(§3) The dose which causes a 50% inhibition of the effects of stimulation of the hypogastric nerve on the urethral pressure (ID50) and the dose which causes a 20% arterial hypotension (ED20) are calculated.

In series [2] the test system is toxicity of norepinephrine. Nature of the series: In vivo adrenolytic activity: protection against norepinephrine-induced death in rats. As to conditions: Rattus norvegicus, po; for responders at 50 mg/kg / responders at 25 mg/kg: 0.5 h, 30 min before i.v. norepinephrine 0.4 mg/kg; for responders at 50 mg/kg: 50 mg/kg p.o.; for responders at 25 mg/kg: 25 mg/kg p.o. The protocol: Norepinephrine injected intravenously in high doses causes the death of 100% of the animals within 15 minutes of being injected. The cause of death is pulmonary edema due to the arterial hypertension induced by stimulation of the adrenergic receptors. The oral administration of α-adrenolytic substances before-hand enables the toxicity of norepinephrine to be reduced. The products are administered orally at times varying between 30 minutes and 6 hours before the intravenous injection (i.v.) of norepinephrine (0.4 mg/kg).

The test system of series [3] is urethral hypertension induced by norepinephrine. Nature of the series: In vivo α-blocking activity in anesthetized rabbits: urethral pressure. The following applies: Oryctolagus cuniculus, iv, norepinephrine-induced urethral pressure increase, read-out: ID50 with regard to urethral hypertension. The text has this:
(§4) The "in vivo" α-blocking activity in terms of the urethral and vascular pressures in anesthetized rabbits was investigated by intravenous administration of the products B 1007, B 1024, B 1058, B 1125 and B 1134.
(§5) The intravenous injection of norepinephrine causes a dose-dependent increase in the arterial and urethral pressures in rabbits. α-Blocking substances injected intravenously antagonize these pressure increases as a function of dose. The 50% inhibitory dose (ID50), defined as being the dose of product which causes a 50% […] in the effects of norepinephrine on the arterial and urethral pressures, is calculated.

Another series has as its system arterial pressure. Nature of the series: Urethral specificity in anesthetized dogs: arterial hypotension. The class given is in vivo. The following applies: i.v., dose causing 20% arterial hypotension.
Text: as §1, §2, §3

The target in series [4] is T1, isolated ductus deferens of rats (Rattus norvegicus, UniProt P43140).
T1 construct: Norepinephrine causes contractions of the isolated ductus deferens of rats; from tissue; host or cells: isolated ductus deferens of rats
T1 sequence (P43140 1-466): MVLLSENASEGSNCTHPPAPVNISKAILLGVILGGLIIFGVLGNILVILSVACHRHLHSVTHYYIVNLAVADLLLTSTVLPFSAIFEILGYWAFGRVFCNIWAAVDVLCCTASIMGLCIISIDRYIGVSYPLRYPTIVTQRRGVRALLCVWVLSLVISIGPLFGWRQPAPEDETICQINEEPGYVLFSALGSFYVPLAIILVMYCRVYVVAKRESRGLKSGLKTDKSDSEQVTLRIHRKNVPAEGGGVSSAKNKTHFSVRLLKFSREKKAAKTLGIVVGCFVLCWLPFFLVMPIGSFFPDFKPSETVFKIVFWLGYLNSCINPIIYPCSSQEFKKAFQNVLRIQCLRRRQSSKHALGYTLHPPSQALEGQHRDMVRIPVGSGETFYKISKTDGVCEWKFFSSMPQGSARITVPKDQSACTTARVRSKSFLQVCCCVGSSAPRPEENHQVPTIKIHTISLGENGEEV
The series can be described thus: In vitro α-adrenolytic activity on isolated ductus deferens. As to conditions: negative log of molar concentration requiring doubled norepinephrine concentration, read-out: pA2, α-blocking action towards norepinephrine on isolated ductus deferens (converted). The text has this: (§6) 2.1. - In vitro α-adrenolytic activity
(§7) This was studied on the ductus deferens of rats and on the urethra of rabbits.
(§8) Norepinephrine causes contractions of the isolated ductus deferens of rats and the isolated urethra of rabbits. The presence of α-blocking substances in a bath containing the organ antagonizes these contractions; the use of increasing concentrations of α-blocking substances makes it possible to calculate:
the pA2 of the compounds on the ductus deferens of rats, the pA2 being the negative logarithm of that molar concentration of the product in the presence of which the concentration of norepinephrine has to be doubled in order to obtain the same effect as in the absence of the product; and […]

Series [5] is described as follows: Toxicity: 50% lethal dose in mice (p.o. and i.v.). As to conditions: mouse, in vivo. The text has this:
The following 50% lethal doses were obtained after oral administration (p.o.) and intravenous administration (i.v.) of the substances to mice.

Series [6] concerns isolated urethra of rabbits. The series can be described thus: In vitro α-adrenolytic activity on isolated urethra. The following applies: rabbit; negative log of molar concentration halving norepinephrine contraction-inducing activity.
Text: as §6, §7, §8
the pD'2 of the compounds on the urethra of rabbits, the pD'2 being the negative logarithm of that molar concentration of the product in the presence of which the contraction-inducing activity of norepinephrine is halved.

Series [7] has as its system arterial hypertension induced by norepinephrine. Nature of the series: In vivo α-blocking activity in anesthetized rabbits: arterial pressure. The following applies: Oryctolagus cuniculus, iv, norepinephrine-induced arterial pressure increase, read-out: ID50 with regard to arterial hypertension.
Text: as §4, §5

[8] abbreviates: intravenous, read-out: LD50 i.v.

Turning to `Cc1ccc(C(C)C)c(OCCN2CCCC2)c1` [B 1007, 3-[2-(pyrrolidin-1-yl)ethoxy]-p-cymene hydrochloride], the ED50 in series [1] came to 0.35 mg/kg; in series [3], 0.34 mg/kg; in series [7], 7.63 mg/kg. Also, the responders at 50 mg/kg in series [2] is 60%. Besides, the “Arterial hypotension ED20” value in the series with arterial pressure is listed as 2 mg/kg. Further, in series [4], the Kb was 182 nM. In addition, the LD50 was 75 mg/kg in series [5] (setting [8]) and 330 mg/kg in series [5] (oral, read-out: LD50 p.o.). Further, the “pD'2, α-blocking action towards norepinephrine on isolated urethra” value in series [6] came to 6.88.

As to `CC(=O)Oc1cc(C(C)C)c(OCCN2CCCC2)cc1C` [B 1024, 2-acetoxy-5-[2-(pyrrolidin-1-yl)ethoxy]-p-cymene hydrochloride], the ED50 in series [1] is 0.07 mg/kg; in series [3], 0.23 mg/kg; in series [7] it was 4.14 mg/kg. The molecule also displayed a responders at 25 mg/kg in series [2] of 70%. For the same molecule, in the series on arterial pressure, the “Arterial hypotension ED20” value is on record as 8 mg/kg. Besides, in series [4], the Kb was 105 nM. The LD50 was 18 mg/kg in series [5] (setting [8]) and 100 mg/kg in series [5] (oral, read-out: LD50 p.o.). Moreover, the “pD'2, α-blocking action towards norepinephrine on isolated urethra” value in series [6] was determined as 6.38.

In series [2], `Cc1cc(OCCN2CCCC2)c(C(C)C)cc1O` [B 1058, 2-hydroxy-5-[2-(pyrrolidin-1-yl)ethoxy]-p-cymene hydrochloride] displayed a responders at 50 mg/kg of 90%. Moreover, the ED50 was 0.13 mg/kg in series [3] and 1.22 mg/kg in series [7]. Besides, in series [4], the Kb was 66.1 nM. For the same molecule, the LD50 in series [5] (setting [8]) is 17 mg/kg; in series [5] (oral, read-out: LD50 p.o.) it was 80 mg/kg. Further, the “pD'2, α-blocking action towards norepinephrine on isolated urethra” value in series [6] was found to be 6.69.

In the case of `CCC(=O)Oc1cc(C(C)C)c(OCCN2CCCC2)cc1C` [B 1125], the ED50 was 0.09 mg/kg in series [1], 0.36 mg/kg in series [3] and 5.95 mg/kg in series [7]. In addition, the responders at 25 mg/kg in series [2] is 60%. For the same molecule, the “Arterial hypotension ED20” value with arterial pressure came to 12 mg/kg. In addition, the Kb in series [4] is 72.4 nM. Also, the LD50 in series [5] (oral, read-out: LD50 p.o.) is about 300 mg/kg. Also, the “pD'2, α-blocking action towards norepinephrine on isolated urethra” value in series [6] came to 6.25.

The molecule `CCCCCC(=O)Oc1cc(C(C)C)c(OCCN2CCCC2)cc1C` [B 1131] displayed a responders at 50 mg/kg in series [2] of 60%. Further, the Kb in series [4] was 105 nM. Also, the LD50 in series [5] (oral, read-out: LD50 p.o.) is about 550 mg/kg. The “pD'2, α-blocking action towards norepinephrine on isolated urethra” value in series [6] is 6.12.

Take `CCCC(=O)Oc1cc(C(C)C)c(OCCN2CCCC2)cc1C` [B 1132, 2-butyryloxy-5-[2-(pyrrolidin-1-yl)-ethoxy]-p-cymene hydrochloride]: in series [2], the responders at 50 mg/kg was 90%. In series [4], the Kb was 44.7 nM. Moreover, the LD50 in series [5] (oral, read-out: LD50 p.o.) is about 500 mg/kg. Moreover, in series [6], the “pD'2, α-blocking action towards norepinephrine on isolated urethra” value worked out at 6.0.

As for `CCCCCCCCCC(=O)Oc1cc(C(C)C)c(OCCN2CCCC2)cc1C` [B 1134], the ED50 worked out at 0.11 mg/kg in series [1], 0.48 mg/kg in series [3] and 6.17 mg/kg in series [7]. Also, in series [2] (100 mg/kg p.o., 4 h before i.v. norepinephrine 0.4 mg/kg), the responders at 100 mg/kg worked out at 100%. Moreover, the “Arterial hypotension ED20” value with arterial pressure came out at 30 mg/kg. Moreover, in series [4], the Kb was 269 nM. Moreover, the LD50 in series [5] (setting [8]) is 36 mg/kg; in series [5] (oral, read-out: LD50 p.o.), about 400 mg/kg. In addition, in series [6], the “pD'2, α-blocking action towards norepinephrine on isolated urethra” value is on record as 6.23.

For the molecule `CC(=O)Oc1cc(C(C)C)c(OCCN(C)C)cc1C` [Thymoxamine, reference compound], the ED50 is 0.09 mg/kg in series [1], 0.5 mg/kg in series [3] and 2.72 mg/kg in series [7]. For the same molecule, the responders at 50 mg/kg in series [2] was determined as 80%. The “Arterial hypotension ED20” value in the series on arterial pressure was found to be 0.27 mg/kg. In addition, the Kb in series [4] was 56.2 nM. For the same molecule, the LD50 in series [5] (setting [8]) is 72.5 mg/kg; in series [5] (oral, read-out: LD50 p.o.), 300 mg/kg. For the same molecule, in series [6], the “pD'2, α-blocking action towards norepinephrine on isolated urethra” value is listed as 7.03.

Source of the values: patent US4795758A, “5-[2-(pyrrolidin-1-yl)ethoxy]-p-cymene derivatives, the process for the preparation of the said derivatives and drugs in which the said derivatives are present” (priority 1987, dated 1989).
